This passage reports IC50, Activity and inhibition results from ChEMBL document CHEMBL2040712, “Design and synthesis of a second series of triazole-based compounds as potent dual mPGES-1 and 5-lipoxygenase inhibitors” (Eur J Med Chem, 2012).

Assay [1] concerns the target T1, Prostaglandin E synthase (Homo sapiens, UniProt O14684).
T1 sequence (O14684 whole entry): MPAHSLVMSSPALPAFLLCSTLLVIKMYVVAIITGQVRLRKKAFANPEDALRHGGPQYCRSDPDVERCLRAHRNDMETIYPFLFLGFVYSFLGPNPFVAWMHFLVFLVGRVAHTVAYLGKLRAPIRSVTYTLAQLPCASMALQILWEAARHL
In words: Inhibition of mPGES1 in IL-1beta-stimulated human A549 cell assessed as inhibition of PGE2 production preincubated for 15 mins before substrate addition by RP-HPLC method.

Assay [2] concerns the target T2, Prostaglandin E synthase (Homo sapiens) (UniProt O14684).
T2 sequence (whole entry): T1 sequence (O14684 whole entry)
In words: Inhibition of mPGES1 in IL-1beta-stimulated human A549 cell assessed as remaining activity measuring of PGE2 level at 10 uM preincubated for 15 mins before substrate addition by RP-HPLC method.

The target in assay [3] is T3, Polyunsaturated fatty acid 5-lipoxygenase (Homo sapiens, UniProt P09917).
T3 sequence (P09917 whole entry): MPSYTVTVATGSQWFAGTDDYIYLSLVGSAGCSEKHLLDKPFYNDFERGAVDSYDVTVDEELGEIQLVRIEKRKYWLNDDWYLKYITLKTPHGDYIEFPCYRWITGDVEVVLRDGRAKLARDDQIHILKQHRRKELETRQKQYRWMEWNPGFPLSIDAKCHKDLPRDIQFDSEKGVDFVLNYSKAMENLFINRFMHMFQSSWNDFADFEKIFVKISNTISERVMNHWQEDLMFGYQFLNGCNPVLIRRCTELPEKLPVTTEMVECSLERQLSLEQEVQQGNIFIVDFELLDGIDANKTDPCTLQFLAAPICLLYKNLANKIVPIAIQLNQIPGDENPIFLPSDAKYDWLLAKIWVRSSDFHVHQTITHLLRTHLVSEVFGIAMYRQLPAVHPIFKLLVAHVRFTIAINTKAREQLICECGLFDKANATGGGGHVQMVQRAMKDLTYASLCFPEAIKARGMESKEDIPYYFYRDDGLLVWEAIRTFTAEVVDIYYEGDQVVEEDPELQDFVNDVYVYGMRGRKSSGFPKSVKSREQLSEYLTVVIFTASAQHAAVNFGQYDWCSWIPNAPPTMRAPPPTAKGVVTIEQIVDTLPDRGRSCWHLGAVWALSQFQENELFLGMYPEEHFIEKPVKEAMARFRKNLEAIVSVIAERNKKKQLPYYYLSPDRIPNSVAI
In words: Inhibition of human recombinant 5-lipoxygenase in cell-free system preincubated for 10 mins before substrate arachidonic acid addition measured after 10 mins by RP-HPLC method.

For assay [4], the target named is T3, Polyunsaturated fatty acid 5-lipoxygenase. In words: Inhibition of 5-lipoxygenase in human neutrophil preincubated for 15 mins before substrate arachidonic acid addition measured after 10 mins by HPLC method.
Assay [5] addresses T4, Polyunsaturated fatty acid 5-lipoxygenase (Homo sapiens) (UniProt P09917).
T4 sequence (whole entry): T3 sequence (P09917 whole entry)
In words: Inhibition of 5-lipoxygenase in human neutrophil assessed as remaining activity at 10 uM preincubated for 15 mins before substrate arachidonic acid addition measured after 10 mins by HPLC method.

For assay [6], the species on record is Rattus norvegicus. Briefly: Inhibition of mPGES1 in rat microsomal membranes assessed as inhibition of PGE2 production at 10 uM after 40 seconds by enzyme immunoassay. It counts as microsomes. Conditions: Microsome.
The target of assay [7] is T4, Polyunsaturated fatty acid 5-lipoxygenase (Homo sapiens). Briefly: Inhibition of human recombinant 5-lipoxygenase in cell-free system assessed as remaining activity at 10 uM preincubated for 10 mins before substrate arachidonic acid addition measured after 10 mins by RP-HPLC method.

In the case of `O=C(O)c1ccc(Cn2cc(-c3ccc(-c4ccc(O)cc4)cc3)nn2)c([N+](=O)[O-])c1`, the IC50 (in general, the midpoint of a concentration-inhibition curve) in assay [1] is more than 10 µM; in assay [3], 6.8 µM; in assay [4], more than 10 µM. For the same compound, the Activity turned out to be 74.2% in assay [2] and 108% in assay [5].

Turning to `O=C(O)c1ccc(Cn2cc(-c3ccc(-c4ccccc4COc4cc(C(F)(F)F)ccc4Cl)cc3)nn2)c([N+](=O)[O-])c1`, the concentration for half-maximal inhibition (IC50) in assay [1] is 1.2 µM; in assay [3] it was 2 µM; in assay [4], 5.3 µM.

With `O=C(O)c1ccc(-c2ccc(-c3cn(Cc4ccc(C(=O)O)cc4[N+](=O)[O-])nn3)cc2)cc1`, the values for the IC50 in assay [1], in assay [3] and in assay [4] were more than 10 µM, more than 5 µM and more than 5 µM, respectively. In assay [2], the Activity amounted to 93%.

Turning to `CC(C)c1ccc2c(c1)c(SC(C)(C)C)c(CC(C)(C)C(=O)O)n2Cc1ccc(Cl)cc1`, in assay [6], the inhibition (in general, the share of the control response that was lost under treatment) is 82%.

For the compound `O=C(O)c1ccc(S(=O)(=O)n2cc(-c3ccc(-c4ccccc4COc4cc(C(F)(F)F)ccc4Cl)cc3)nn2)cc1`, the values for the 50% inhibitory concentration (IC50) in assay [1], in assay [3] and in assay [4] were more than 10 µM, 1.96 µM and 1.2 µM, respectively. For the same compound, in assay [2], the Activity came to 78.6%.

In the case of `O=C(O)c1ccc(Cn2cc(-c3ccc(-c4cccs4)cc3)nn2)c([N+](=O)[O-])c1`, the IC50 in assay [1] is 5.5 µM; in assay [3] it was more than 10 µM; in assay [4], more than 10 µM. For the same compound, the Activity was determined as 52.2% in assay [7] and 89.7% in assay [5].

Regarding `CN(C)c1ccc2cc(S(=O)(=O)Nc3ccc(-c4ccc(-c5cn(Cc6ccc(C(=O)O)cc6[N+](=O)[O-])nn5)cc4)cc3)ccc2c1`, the half-maximal inhibitory concentration (IC50) in assay [1] is more than 10 µM; in assay [3], 6.1 µM; in assay [4], more than 10 µM. Besides, the Activity was determined as 72.5% in assay [2] and 96.5% in assay [5].

In the case of `O=C(O)c1ccc(Cn2cc(-c3ccc(-c4ccccc4COc4cc(C(F)(F)F)ccc4Cl)cc3)nn2)cc1`, the IC50 in assay [1] worked out at 1 µM; in assay [3] it was 1.47 µM; in assay [4] it was 2 µM.

Regarding `O=C(O)c1ccc(Cn2cc(-c3ccc(-c4cccc(O)c4)cc3)nn2)c([N+](=O)[O-])c1`, the IC50 in assay [1], in assay [3] and in assay [4] was more than 10 µM throughout. The figures for the Activity in assay [2], in assay [7] and in assay [5] were 55.6%, 80.2% and 114%, respectively.

Consider `COc1ccc(-c2ccc(-c3cn(Cc4ccc(C(=O)O)cc4[N+](=O)[O-])nn3)cc2)cc1CN1CCOCC1`, for which the IC50 in assay [1], in assay [3] and in assay [4] was more than 10 µM in each case. Besides, the Activity in assay [2] came to 87.4%; in assay [7], 84.9%; in assay [5] it was 111%.

With `Nc1ccc(-c2ccc(-c3cn(Cc4ccc(C(=O)O)cc4[N+](=O)[O-])nn3)cc2)cc1`, the IC50 in assay [1], in assay [3] and in assay [4] was more than 10 µM each time. Moreover, the Activity in assay [2] is 65.5%; in assay [7], 63.5%; in assay [5] it was 100%.

`O=C(O)c1ccc(Cn2cc(-c3ccc(-c4ccccc4C(=O)O)cc3)nn2)c([N+](=O)[O-])c1`: the IC50 in assay [1], in assay [3] and in assay [4] was more than 10 µM in each case. The values for the Activity in assay [2], in assay [7] and in assay [5] were 94.1%, 75.3% and 65.9%, respectively.

In the case of `O=C(O)c1ccc(Cn2cc(-c3ccc(-c4ccccc4)cc3)nn2)c([N+](=O)[O-])c1`, the IC50 in assay [1] was less than 3.2 µM.

On to `O=C(O)c1ccc(Cn2cc(-c3ccc(-c4cccc(C(=O)N5CCOCC5)c4)cc3)nn2)c([N+](=O)[O-])c1`, for which the IC50 in assay [1], in assay [3] and in assay [4] was more than 10 µM each time. The Activity in assay [2] was 88.9%; in assay [7], 62.7%; in assay [5], 125%.

For `COc1cc(-c2ccc(-c3cn(Cc4ccc(C(=O)O)cc4[N+](=O)[O-])nn3)cc2)cc(OC)c1OC`, the IC50 in assay [1], in assay [3] and in assay [4] was more than 10 µM each time. Also, the Activity in assay [2] was determined as 54.3%; in assay [7], 64.3%; in assay [5] it was 90.2%.

Consider `O=C(O)c1cccc(-c2ccc(-c3cn(Cc4ccc(C(=O)O)cc4[N+](=O)[O-])nn3)cc2)c1`, for which the IC50 in assay [1], in assay [3] and in assay [4] was more than 10 µM throughout. The Activity in assay [2] was 82.1%; in assay [7], 74.7%; in assay [5], 124%.

In the case of `Nc1cc(C(=O)O)ccc1Cn1cc(-c2ccc(-c3ccccc3COc3cc(C(F)(F)F)ccc3Cl)cc2)nn1`, the IC50 was found to be 0.68 µM in assay [1], 0.9 µM in assay [3] and 2.1 µM in assay [4].
